Experimental data reported in patent publication US20220364065A1, “COMPOSITION FOR REMOVING PLURIPOTENT STEM CELLS AND METHOD OF REMOVING PLURIPOTENT STEM CELLS” (NATIONAL UNIVERSITY CORPORATION HOKKAIDO UNIVERSITY, priority 2018, published 2022).
“Also recorded” adds a separate entry of the source.

Tests used:
[1] = tested on: teratomas formed from mouse ES cells; test: Anti-teratoma activity in NOD/SCID mice, ES cell-derived tumors; format: in vivo
Procedure: For tumors, 10-μm-thick sections were prepared and immunostained using the methods described by Kondo T. and Raff M., EMBO J. 2000; 19(9): 1998-2007, and Takanaga H, et al., Stem Cells. 2009; 27(1): 165-174. The following antibodies were used for this immunostaining.
TOCRIS) PBS solution was administered daily intraperitoneally to mice bearing subcutaneous tumors. Five days after intraperitoneal administration, the mice were sacrificed to death, and the tumors were removed and photographed for pathological analysis according to the method described in Tsukamoto Y, et al., Stem Cells. 2016; 34(8): 2016-2025.
Next, sections of these tumors were prepared, immunolabeled for the proliferation marker Ki67, pluripotent stem cell markers (Oct4 and Nanog), and differentiation markers (ATF, βIII tubulin, and SMA), and observed.

mouse astrocytes = test: MTT assay, viability of mouse astrocytes; format: cell-based; conditions: 10 μM BRQ, 3 days
Procedure: One thousand cells were seeded into each well of a 96-well plate and cultured for 3 days in medium (200 μL/well) supplemented with only DMSO at a final concentration of 0.1% or in medium (200 μL/well) supplemented with each dihydroorotate dehydrogenase (DHODH) inhibitor. The medium used was the appropriate culture solution for each cell as described above.
The concentration of each DHODH inhibitor added to the medium was a 2-fold dilution series starting from 200 μM.
As a background, a well containing medium only was prepared, and as a control, a well was also prepared in which medium containing Triton X-100 (final concentration 0.2%) was added to the cells.
Then, 5 μL of MTT (5 mg/ml, manufactured by Wako) was added to each well, and the cells were incubated at 37° C. for 2 to 3 hours. Then, the medium was replaced with 100 μL of DMSO to lyse the cells, and the absorbance of these cell lysates at a wavelength of 570 nm was measured with a microplate reader (manufactured by Bio-Rad, Benchmark model). In addition, based on the obtained absorbance, the cell viability was calculated by the following formula.
Cell viability (%)=(absorbance in wells with DHODH inhibitor-absorbance in background)/(absorbance in control-absorbance in background)×100.

## Cc1c(-c2ccc(-c3ccccc3F)cc2)nc2ccc(F)cc2c1C(=O)O [BRQ, 6-fluoro-2-(2′-fluoro-1,1′-biphenyl-4-yl)-3-methyl-4-quinoline-sodium carboxylate]
[1]; ES cell-derived tumors
  number of Oct4-positive cells and Nanog-positive cells in tumors: significantly decreased
[1]; ES cell-derived tumors, BRQ intraperitoneally
  tumor proliferation: suppressed
[1]; ES cell-derived tumors, BRQ- vs DMSO-treated
  cells expressing differentiation markers (ATF, βIII tubulin, SMA) in tumors: similarly contained in both tumors
[1]; ES cell-derived tumors, compared to DMSO-treated tumors
  Ki67-positive proliferating cells in tumors: significantly reduced
[1]; ES cell-derived, BRQ intraperitoneally (DMSO control 0.55 cm^3)
  sizes of teratomas: 0.12 cm^3
Mouse astrocytes
  cytotoxic activity / sensitivity (viability, MTT assay): hyposensitive; also recorded: no significant cytotoxic activity
